Measurements as given in patent US9833520B2, “Labeled, non-peptidic, multivalent integrin antagonist compounds; methods for synthesis and uses thereof” (The Methodist Hospital Research Institute, priority 2011, dated 2017).
Where “and” joins values, the source holds several entries; their conditions need not be identical. Equal entries are not always repeated. Entries after “also recorded” stand apart in the source; their conditions may differ.

Experiments:
[1] = system: B16F10 cells; assay: In vitro cytotoxicity (MTT) assay, B16F10; format: cell-based, mouse; conditions: B16F10, 100 μg/mL, 24 hr
Protocol: For cell cytotoxicity assay, the cells were then seeded into 96-well flat-bottomed tissue-culture plates at 1×10^4 cells/well and incubated for 24 hr in humidified atmosphere of 5% (vol./vol.) CO2 at 37° C. in the presence of each compound. The multivalent compound (monomer, dimer, and trimer) sample solutions were diluted with culture medium (1% FBS added) to obtain concentrations in the range of 0.1-100 μg/mL for each compound. The cytotoxic effects of monomer, dimer and trimer compounds were evaluated by adding 100 μL of each sample in 100 μL culture medium to each well. After 24-hrs' incubation, cell viability was evaluated by mitochondrial conversion of 3-(4,5-dimethylthiazol-2-yl)-2,5-diphenyl tetrazolium bromide (MTT assay) (Allison et al., 1985).
Mouse melanoma B16F10 cells (Caliper.CO,) and human melanoma M21 cells were maintained in RPMI 1640 (Caliper) containing 10% (vol./vol.) fetal bovine serum (Invitrogen, Ontario, Canada), 100 U/mL penicillin G, and 100 μg/mL streptomycin for general cell growing condition. For cell cytotoxicity assay, the cells were then seeded into 96-well flat-bottomed tissue-culture plates at 1×10^4 cells/well and incubated for 24 hr or 72 hr in humidified atmosphere of 5% (vol./vol.) CO2 at 37° C. in the presence of each compound. The multivalent compounds (monomer, dimer, trimer) sample solutions were diluted with culture medium (1% FBS added) to obtain the concentration of each compound in the range of 0.1 to 100 μg/mL. The cytotoxic effects of monomer, dimer and trimer compounds solution were evaluated by adding a mixture of 100 μL of each sample and 100 μL of culture medium to each well. After 24-hr or 72-hr incubation, cell viability was evaluated by mitochondrial conversion of 3-(4,5-dimethylthiazol-2-yl)-2,5-diphenyl tetrazolium bromide (MTT assay).

[2] = system: B16F10 melanoma tumor; assay: In vivo antitumor efficacy in B16F10 melanoma tumor-bearing mice; conditions: for average tumor volume / tumor volume against control group (PBS = 100%): 14 days; for tumor volume against control group (PBS = 100%): 30 mg/kg i.p. every 12 hours; for reduction in tumor mass compared to control: 30 mg/kg, endpoint
Protocol: All animal procedures were approved by appropriate Animal Care and Use Committee. The therapeutic test for antitumor efficacy of IA multivalent compounds was evaluated using tumor-bearing mice, which were prepared by bilateral subcutaneous injection in the thighs of nu/nu female mice (6 weeks old; 20-25 g). The mouse melanoma cancer cell line B16F10 was obtained from Caliper and tested negative for rodent pathogens. The cells were maintained in vitro as described above. The mice were inoculated with suspensions of 1×10^6 B16F10 cells in 100 μL complete medium (10% FBS added). Three days after subcutaneous inoculation (the tumor diameter was approximately 3-5 mm, the tumor volume was approximately 50 to 100 mm^3), tumor-bearing mice (n=7 per group) were injected intraperitoneally (i.p.) with each IA compound (monomer, dimer, or trimer) in PBS or PBS alone for control group. All compounds were serially diluted with PBS, and were given 2 times per day (every 12 hr) at a dose of 100 μL of 7.5, 15, 30 mg/kg per injection for 14 days. […] This study design was deliberately chosen to highlight the effect of multivalency. The tumor size was calculated as a×b^2/2, where ‘a’ is the largest and ‘b’ the smallest diameter. In addition, the weight of the mice and the tumors were recorded after harvesting.
A tumor growth model was used to isolate and interpret the effects of pharmacological dose (pharmacophore) and multivalency. This was done using the R software package ‘geepack’ (Højsgaard et al., 2006; Team et al., 2012). The tumor burden (sum of the volumes of left and right tumors) for each animal was first normalized by dividing by the starting volume on the first day of treatment, then taking the logarithm to linearize the data. The pharmacological dose was decoupled from the molecular valency, N, for this model by defining the pharmacophore or pharmacological dose (PD) as PD=N×MD, where MD is the molar dose. The pharmacological excess (compared to monomer) dose (ED) due to multivalency is then: ED=PD-MD=MD×(N−1). The data was fit to a linear model:
All animal procedures were approved by the appropriate regulatory agencies. The therapeutic test for antitumor efficacy of IA multivalent compounds was evaluated using tumor-bearing mice that were prepared by the subcutaneous injection in the dorsa of nu/nu female mice (6 weeks old; 20-25 g). The mouse melanoma cancer cell line B16F10 was obtained from Caliper, and tested negative for rodent pathogens. The cells were maintained in vitro as described above. Mice were inoculated with a suspension of 1×10^6 B16F10 cells in 100 μL complete medium (10% FBS added). Four days after subcutaneous inoculation (the tumor diameter was approximately […], the tumor volume was approximately 50 to 100 mm^3), tumor-bearing mice (n=7 per group) were inoculated intraperitoneally (i.p.) with each IA compound (Monomer, Dimer, Trimer) in PBS or PBS alone for control group. All compounds were serially diluted with PBS and were given 2 times per day (every 12 hr) so that compounds doses would be 100 μL of 7.5, 15, 30 mg/kg (maximum tolerated dose) for 14 days. The tumor size was calculated as: a×b2/2, where a is the largest and b the smallest diameter.

Row | SMILES | cell viability [1] | average tumor volume ([2]; 15 mg/kg i.p. twice per day) | average tumor volume as fraction of PBS-treated control mice ([2]; 15 mg/kg, 14 days after start of treatment) | tumor volume against control group (PBS = 100%) [2] | average tumor volume ([2]; 30 mg/kg i.p. twice per day) | reduction in tumor mass compared to control [2] | survival ([2]; 7.5, 15, 30 mg/kg twice per day) | average tumor volume ([2]; Example 3, dose not stated) | average tumor size smaller than in the IA-dimer group ([2]; compared to IA-dimer group) | average tumor size smaller than in the IA-monomer group ([2]; compared to IA-monomer group) | cell viability ([1]; listed as IA-monomer) | cell viability ([1]; listed as IA-dimer) | reduction in tumor mass compared to control ([2]; listed as dimer)
1 | O=C(NCCS(=O)(=O)N[C@@H](CNC(=O)c1ccc(OCCNC2=NCCCN2)cc1)C(=O)O)OCCN(CCOC(=O)NCCS(=O)(=O)N[C@@H](CNC(=O)c1ccc(OCCNC2=NCCCN2)cc1)C(=O)O)CCOC(=O)NCCS(=O)(=O)N[C@@H](CNC(=O)c1ccc(OCCNC2=NCCCN2)cc1)C(=O)O [IA trimer] | ~80% | 2000 mm^3 | less than ⅓; also recorded: less than one-third | 32.05% | 1800 (s.d. 800) mm^3 and 1800 mm^3 | 71±7% | all of animals survived for at least 2 weeks | 2000 mm^3 | 1.7 fold | 2.3 fold |  |  | 
2 | NCCS(=O)(=O)N[C@@H](CNC(=O)c1ccc(OCCNC2=NCCCN2)cc1)C(=O)O [IA, 4-[2-(3,4,5,6-tetrahydropyrimidine-2-ylamino)ethyloxy]benzoyl-2-(S)-aminoethylsulfonyl-amino-β-alanine] |  |  |  | 59.29% | 3300 (s.d. 1200) mm^3 | 36±9% |  | 5000 mm^3 |  |  | smaller and less significant; also recorded: no significant changes of cell viability |  | 
3 | NC(CCCCCC(=O)NCCS(=O)(=O)N[C@@H](CNC(=O)c1ccc(OCCNC2=NCCCN2)cc1)C(=O)O)C(=O)NCCS(=O)(=O)N[C@@H](CNC(=O)c1ccc(OCCNC2=NCCCN2)cc1)C(=O)O (some centres unmarked) [bivalent IA] |  |  |  | 45.33% | 2500 (s.d. 1000) mm^3 |  |  | 3000 mm^3 |  |  |  | smaller and less significant; also recorded: no significant changes of cell viability | 49±8%
